Data on 21 compounds can be found in patent publication US10144746B2 (GLOBAL BLOOD THERAPEUTICS, INC., priority 2015, dated 2018).

This experiment concerns the target Human plasma kallikrein (Homo sapiens (Human), UniProt P03952). Description: In vitro plasma kallikrein inhibition assay (chromogenic substrate D-Pro-Phe-Arg-pNa, absorbance at 405 nm, IC50 determination). Format: biochemical. The conditions noted are these: read-out: KLKB1 pIC50 (converted). As to the method: In Vitro Plasma Kallikrein Inhibition Assay
The chromogenic substrate D-Pro-Phe-Arg-pNa, 2HCl (BIOPHEN CS-31(02) from Hyphen BioMed, Neuville-Sur-oise, France) was dissolved in 5 mL deionized water and stored at 4° C. […] All other chemicals were of analytical grade.
A stock solution of 7 μM in 50% glycerol was stored at −20° C.
Enzyme reactions were conducted in “assay buffer” comprised of 20 mM HEPES at pH 7.4, 150 mM NaCl, 0.1% PEG-8000 and 0.01% Triton X-100.
Both enzyme and substrate were diluted in assay buffer.
Plate measurements were conducted using a SPECTROStar Nano reader (BMG Labtech, San Francisco, Calif., USA). […] We used discrete wavelength, precise, kinetic reads of 15 cycles with a 60 sec cycle time.
Determination of IC50 values
The test compound was dissolved in 100% DMSO. The compounds were serially diluted in DMSO in a 7 point dose response. For the assays, 66.5 μL of protease solution (protease in assay buffer) was added per well followed by the addition of 8.5 μL of compound in 100% DMSO. […] After 30 min. incubation at room temperature on an orbital shaker, the reactions were started by the addition of 10 μL substrate solution (in assay buffer, final assay concentration was 600 uM). After the addition of the substrate solution the final DMSO concentration was 10%. The plate was placed again on the shaker for 5 sec, spun at 2000 rpm for 5 sec and read on the spectrophotometer. […] The IC50 value was calculated from the plot of rate vs. inhibitor concentration by a 4 parameter logistic equation: y=A+((B−A)/([…]))
where y is the rate at the inhibitor concentration, x. A is the minimum y value at the highest inhibitor concentration and B is the y value in the absence of inhibitor, C is the IC50 value and D is the slope factor. The curve fitting was conducted with the non-linear regression routine of the analysis software XLfit (IDBS, version 5.3.1).

Each structure is given as a SMILES string.

Sequence of Human plasma kallikrein (P03952 391-638): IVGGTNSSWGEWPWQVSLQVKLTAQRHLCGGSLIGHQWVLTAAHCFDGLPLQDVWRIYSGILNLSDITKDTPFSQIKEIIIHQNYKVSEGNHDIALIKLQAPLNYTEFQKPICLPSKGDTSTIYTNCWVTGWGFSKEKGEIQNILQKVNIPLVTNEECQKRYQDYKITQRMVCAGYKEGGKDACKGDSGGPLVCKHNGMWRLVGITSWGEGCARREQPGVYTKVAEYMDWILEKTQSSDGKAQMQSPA
Sequence of Human plasma kallikrein (P03952 20-390 partner): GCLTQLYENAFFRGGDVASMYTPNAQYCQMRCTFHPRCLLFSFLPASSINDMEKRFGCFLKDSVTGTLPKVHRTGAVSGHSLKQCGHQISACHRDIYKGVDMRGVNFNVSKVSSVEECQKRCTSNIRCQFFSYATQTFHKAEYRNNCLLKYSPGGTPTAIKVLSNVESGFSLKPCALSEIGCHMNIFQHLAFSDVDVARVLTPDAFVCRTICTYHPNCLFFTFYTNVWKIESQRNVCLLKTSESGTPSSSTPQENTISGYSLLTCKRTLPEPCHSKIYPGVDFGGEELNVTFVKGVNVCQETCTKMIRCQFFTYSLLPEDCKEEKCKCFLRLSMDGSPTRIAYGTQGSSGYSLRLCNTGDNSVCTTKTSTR

On to `Cc1cnn(Cc2ccc3c(c2)C2OC3c3ccc(C(=O)NCc4c(F)cc5c(c4C)CNC5)cc32)c1` (racemic) [Example 153, (±)-N-[(6-fluoro-4-methyl-2,3-dihydro-1H-isoindol-5-yl)methyl]-12-[(4-methyl-1H-pyrazol-1-yl)methyl]-15-oxatetracyclo[6.6.1.0^2,^7.0^9,1^4]-pentadeca-2,4,6,9,11,13-hexaene-4-carboxamide], for which the IC50 is 204 nM. Take `Nc1nccc2ccc(CNC(=O)c3ccc4c(c3)C3OC4c4ccc(-c5ccc(F)cc5F)cc43)cc12` (racemic) [Example 154, (±)-N-[(1-aminoisoquinolin-7-yl)methyl]-12-(2,4-difluorophenyl)-15-oxatetracyclo [6.6.1.0^2,^7.0^9,1^4]-pentadeca-2,4,6,9,11,13-hexaene-4-carboxamide]: the IC50 is 3720 nM. Consider `Nc1ncc(CNC(=O)c2ccc3c(c2)C2OC3c3ccc(-c4ccc(F)cc4F)cc32)c2ccccc12` (racemic) [Example 155, (±)-N-[(1-aminoisoquinolin-4-yl)methyl]-12-(2,4-difluorophenyl)-15-oxatetracyclo [6.6.1.0^2,^7.0^9,1^4]-pentadeca-2,4,6,9,11,13-hexaene-4-carboxamide], for which the IC50 is 4070 nM. For `Cc1ccc(C#N)c(-c2ccc3c(c2)C2OC3c3ccc(C(=O)NCc4c(C)cc(N)nc4C)cc32)c1` (racemic) [Example 156, (±)-N-[(6-amino-2,4-dimethylpyridin-3-yl)-methyl]-12-(2-cyano-5-methylphenyl)-15-oxatetracyclo[6.6.1.0^2,^7.0^9,1^4] pentadeca-2,4,6,9,11,13-hexaene-4-carboxamide], the IC50 is 93.3 nM. For `Cc1ccc(-c2ccc3c(c2)C2OC3c3ccc(C(=O)NCc4c(C)cc(N)nc4C)cc32)c(C#N)n1` (racemic) [Example 157, (±)-N-[(6-amino-2,4-dimethylpyridin-3-yl)-methyl]-12-(2-cyano-6-methylpyridin-3-yl)-15-oxatetracyclo [6.6.1.0^2,^7.0^9,1^4] pentadeca-2,4,6,9,11,13-hexaene-4-carboxamide], the IC50 is 22.9 nM.

In the case of `Cc1cc(N)nc(C)c1CNC(=O)c1ccc2c(c1)C1OC2c2ccc(-c3cccc(C(F)(F)F)c3C#N)cc21` (racemic) [Example 158, (±)-N-[(6-amino-2,4-dimethylpyridin-3-yl)-methyl]-12-[2-cyano-3-(trifluoromethyl)phenyl]-15-oxatetracyclo[6.6.1.0^2,^7.0^9,1^4] pentadeca-2,4,6,9,11,13-hexaene-4-carboxamide], the IC50 is 112 nM.

Consider `Cc1cccc(Oc2ccc3c(c2)C2OC3c3ccc(C(=O)NCc4c(C)cc(N)nc4C)cc32)c1` (racemic) [Example 159, (±)-N-[(6-amino-2,4-dimethylpyridin-3-yl)-methyl]-12-(3-methylphenoxy)-15-oxatetracyclo[6.6.1.0^2,^7.0^9,1^4] pentadeca-2,4,6,9,11,13-hexaene-4-carboxamide], for which the IC50 was 1860 nM.

Turning to `Cc1c(CNC(=O)c2ccc3c(c2)C2OC3c3ccc(Cn4cccn4)cc32)c(F)cc2c1CNC2` (racemic) [Example 160, (±)-N-[(6-fluoro-4-methyl-2,3-dihydro-1H-isoindol-5-yl)methyl]-12-[(1H-pyrazol-1-yl)methyl]-15-oxatetracyclo [6.6.1.0^2,^7.0^9,1^4]-pentadeca-2,4,6,9,11,13-hexaene-4-carboxamide], the IC50 is 120 nM.

On to `Cc1cc2c(c(C)c1CNC(=O)c1ccc3c(c1)C1OC3c3ccc(Cn4cccn4)cc31)CNC2` (racemic) [Example 161, (±)-N-[(4,6-dimethyl-2,3-dihydro-1H-isoindol-5-yl)methyl]-12-[(1H-pyrazol-1-yl)methyl]-15-oxatetracyclo[6.6.1.0^2,^7.0^9,1^4]-pentadeca-2,4,6,9,11,13-hexaene-4-carboxamide], for which the IC50 is 1290 nM. With `Cc1cnn(Cc2ccc3c(c2)C2OC3c3ccc(C(=O)NCc4c(C)cc5c(c4C)CNC5)cc32)c1` (racemic) [Example 162, (±)-N-[(4,6-dimethyl-2,3-dihydro-1H-isoindol-5-yl)methyl]-12-[(4-methyl-1H-pyrazol-1-yl)methyl]-15-oxatetracyclo [6.6.1.0^2,^7.0^9,1^4]-pentadeca-2,4,6,9,11,13-hexaene-4-carboxamide] the figure was 72.4 nM; with `Cc1cc(CNC(=O)c2ccc3c(c2)C2OC3c3ccc(-c4ccc(F)cc4F)cc32)c(C)nc1N` (racemic) [Example 166, (±)-N-[(6-amino-2,5-dimethylpyridin-3-yl)-methyl]-12-(2,4-difluorophenyl)-15-oxatetracyclo[6.6.1.0^2,^7.0^9,1^4] pentadeca-2,4,6,9,11,13-hexaene-4-carboxamide], 6760 nM; with `COc1ccncc1-c1ccc2c(c1)C1OC2c2ccc(C(=O)NCc3c(C)cc(N)nc3C)cc21` (racemic) [Example 167, (±)-N-[(6-amino-2,4-dimethylpyridin-3-yl)-methyl]-12-(4-methoxypyridin-3-yl)-15-oxatetracyclo[6.6.1.0^2,^7.0^9,1^4] pentadeca-2,4,6,9,11,13-hexaene-4-carboxamide], 115 nM.

For `Nc1cc(CNC(=O)c2ccc3c(c2)C2OC3c3ccc(-c4ccc(F)cc4F)cc32)ccn1` (racemic) [Example 168, (±)-N-[(2-aminopyridin-4-yl)methyl]-12-(2,4-difluorophenyl)-15-oxatetracyclo[6.6.1.0^2,^7.0^9,1^4]-pentadeca-2,4,6,9,11,13-hexaene-4-carboxamide], the IC50 was 20000 nM. For the compound `Cc1cc(N)nc(C)c1CNC(=O)c1ccc2c(c1)C1OC2c2ccc(-c3cc(F)c(F)cc3F)cc21` (racemic) [Example 169, (±)-N-[(6-amino-2,4-dimethylpyridin-3-yl)-methyl]-12-(2,4,5-trifluorophenyl)-15-oxatetra-cyclo [6.6.1.0^2,^7.0^9,1^4]pentadeca-2,4,6,9,11,13-hexaene-4-carboxamide], the IC50 is 34.7 nM. With `CCCc1cc(N)nc(C)c1CNC(=O)c1ccc2c(c1)C1OC2c2ccc(-c3ccc(F)cc3F)cc21` (racemic) [Example 172, (±)-N-[(6-amino-2-methyl-4-propylpyridin-3-yl)methyl]-12 (2,4-difluorophenyl)-15-oxatetracyclo[6.6.1.0^2,^7.0^9,1^4] pentadeca-2,4,6,9,11,13-hexaene-4-carboxamide] the figure was 10 nM. As for `Cc1nc(N)cc(C(C)C)c1CNC(=O)c1ccc2c(c1)C1OC2c2ccc(-c3ccc(F)cc3F)cc21` (racemic) [Example 173, (±)-N-{[6-amino-2-methyl-4-(propan-2-yl)pyridin-3-yl]methyl}-12-(2,4-difluorophenyl)-15-oxatetra-cyclo[6.6.1.0^2,^7.0^9,1^4]pentadeca-2,4,6,9,11,13-hexaene-4-carboxamide], the figure is 3.02 nM. As for `Cc1nc(N)cc(C2CC2)c1CNC(=O)c1ccc2c(c1)C1OC2c2ccc(-c3ccc(F)cc3F)cc21` (racemic) [Example 180, (±)-N-[(6-amino-4-cyclopropyl-2-methylpyridin-3-yl)methyl]-12-(2,4-difluorophenyl)-15-oxatetracyclo[6.6.1.0^2,^7.0^9,1^4] pentadeca-2,4,6,9,11,13-hexaene-4-carboxamide], the figure is 11 nM. `Cc1cc(N)nc(C)c1CNC(=O)c1ccc2c(c1)C1OC2c2ccc(C(=O)c3ccccc3)cc21` (racemic) [Example 188, (±)-N-[(6-amino-2,4-dimethylpyridin-3-yl)methyl]-12-benzoyl-15-oxatetracyclo-[6.6.1.0^2,^7.0^9,1^4]pentadeca-2,4,6,9,11,13-hexaene-4-carboxamide]: the IC50 was 10 nM.

Turning to `N=C(N)c1ccc(CNC(=O)c2ccc3c(c2)C2OC3c3ccc(-c4ccccc4)cc32)cc1` (racemic) [Example 189, (±)-N-[(4-carbamimidoylphenyl)methyl]-12-phenyl-15-oxatetracyclo[6.6.1.0^2,^7.0^9,1^4]-pentadeca-2,4,6,9,11,13-hexaene-4-carboxamide], the IC50 was 4.57 nM.

For the compound `CN(C)C(=NC(=N)c1ccc(CNC(=O)c2ccc3c(c2)C2OC3c3ccc(-c4ccccc4)cc32)cc1)N(C)C` (racemic) [Example 190, (±)-N-{[4-({[bis(dimethylamino)methylidene]-amino}methanimidoyl)phenyl]methyl}-12-phenyl-15-oxatetracyclo[6.6.1.0^2,^7.0^9,1^4] pentadeca-2,4,6,9,11,13-hexaene-4-carboxamide], the IC50 was 129 nM. As for `N/C(=N\O)c1ccc(CNC(=O)c2ccc3c(c2)C2OC3c3ccc(-c4ccc(F)cc4F)cc32)cc1F` (racemic) [Example 197, (±)-12-(2,4-difluorophenyl)-N-({3-fluoro-4-[N′-hydroxycarbamimidoyl]phenyl}methyl)-15-oxatetracyclo[6.6.1.0^2,^7.0^9,1^4] pentadeca-2,4,6,9,11,13-hexaene-4-carboxamide], the figure is 100000 nM.
